Drawing on US20240239788A1, “SMALL MOLECULE INHIBITORS OF KRAS G12D MUTANT” (Merck Sharp & Dohme LLC, priority 2021, published 2024), this text covers IC50 for 27 molecules.

Where a name gives a salt, the structure may show the parent alone. Read-outs that look alike come from different tables or passages of the source.

For test [1], the target named is KRAS protein containing G12D mutation (Homo sapiens (Human), UniProt P01116, G12D). Description: SOS-catalyzed nucleotide exchange assay (GNE), TR-FRET. The test is classed as biochemical. To be noted: biotinylated KRAS G12D, SOS and GTP, 60-minute incubation. The method, then: Compounds are added to this complex and then after a 60-minute incubation time the mixture is treated with SOS and unlabeled GTP. Small molecule inhibitors stabilize the Bodipy-GDP complex whereas the untreated protein rapidly exchanges Bodipy-GDP for unlabeled GTP resulting in reduced TR-FRET signal.
KRAS protein containing G12D mutation, sequence (P01116 other isoform, or with tags, fused parts or gaps G12D (already in the parent)): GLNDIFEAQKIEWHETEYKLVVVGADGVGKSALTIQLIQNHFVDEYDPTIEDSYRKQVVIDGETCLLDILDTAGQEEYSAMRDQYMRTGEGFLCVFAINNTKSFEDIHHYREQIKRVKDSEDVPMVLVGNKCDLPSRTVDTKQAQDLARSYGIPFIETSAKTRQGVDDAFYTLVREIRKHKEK
This solution is referred to as biotinylated KRAS G12D stock solution.

For test [2], the system named is AsPC-1 cells containing homozygous KRAS-G12D activating mutation. Description: Cellular phospho-ERK assay with 10% FBS (Examples 107a-256). The test is classed as cell-based. The protocol:
5% CO2 for 2 hours. […] Assay plates were read on a EnVision Multimode Plate Reader (PerkinElmer) and the ratio of p-Erk vs total Erk in each well was used as the final readout.

Where [3] appears, read: read-out: IC50 (nM) pERK (cell with FBS 10%), AsPC-1 cells, 10% fetal bovine serum, 2 hours, ratio of p-Erk vs total Erk.
[4] abbreviates: Homo sapiens, ASPC1, 2 h, read-out: IC50 (nM) pERK (cell with FBS 10%), AsPC-1 cells, 10% fetal bovine serum, 2 hours, ratio of p-Erk vs total Erk.

`C#Cc1cccc2cccc(-c3c(F)cc4c(N5CC6(C)CCC(C)(C5)N6)nc(OC[C@@]56CCCN5C[C@H](F)C6)nc4c3F)c12` (single isomer, unassigned) [Ex. 190a, TFA]: the IC50 in test [1] came to 2510 nM; in test [2] (read-out: IC50 (nM) pERK (cell with FBS 10%), AsPC-1 cells, 10% fetal bovine serum, 2 hours, ratio of p-Erk vs total Erk, TFA), 30000 nM.
Regarding `C[C@]12CCC(CN(c3nc(OC[C@@]45CCCN4C[C@H](F)C5)nc4c(F)c(-c5cc(O)cc6cc(F)cc(Cl)c56)c(F)cc34)C1)N2` (single isomer, unassigned) [Ex. 180a], the IC50 was found to be 6.48 nM in test [1] and 1040 nM in test [2] (setting [3]).
For the molecule `C[C@@]12CC[C@H](CN(c3nc(OC[C@@]45CCCN4C[C@H](F)C5)nc4c(F)c(-c5cc(O)cc6ccc(F)c(Cl)c56)c(F)cc34)C1)N2` (single isomer, unassigned) [Ex. 176b], the IC50 in test [1] is 110 nM; in test [2] (setting [4]), 4360 nM.
With `Nc1cc(Cl)c(C(F)(F)F)c(-c2c(Cl)cc3c(N4CC5CCC(C4)N5)nc(OC[C@@]45CCCN4C[C@H](F)C5)nc3c2F)n1` (single isomer, unassigned) [Ex. 154a], the figures for the IC50 in test [1] and in test [2] (setting [4]) were 1.1 nM and 52.1 nM, respectively.
As for `C#Cc1cccc2c(F)c(O)cc(-c3c(F)cc4c(N5C[C@H]6CC[C@@](C)(C5)N6)nc(OC[C@@]56CCCN5C[C@H](F)C6)nc4c3F)c12` [202a, 4-(6,8-difluoro-2-(((2R,7aS)-2-fluorotetrahydro-1H-pyrrolizin-7a(5H)-yl)methoxy)-4-((1.5R)-1-methyl-3,8-diazabicyclo[3.2.1]octan-3-yl)quinazolin-7-yl)-5-ethynyl-1-fluoronaphthalen-2-ol], the IC50 in test [1] came to 302 nM; in test [2] (setting [3]), 11500 nM.
For `CN(C)CC1(COc2nc(N3C[C@H]4CC[C@@](C)(C3)N4)c3cc(F)c(-c4cc(O)cc5ccccc45)c(F)c3n2)CC1C(=O)O` (stereo partly drawn) [Ex. 107, 2-(((6,8-difluoro-7-(3-hydroxynaphthalen-1-yl)-4-((1S,5R)-1-methyl-3,8-diazabicyclo[3.2.1]octan-3-yl)quinazolin-2-yl)oxy)methyl)-2-((dimethylamino)methyl)cyclopropane-1-carboxylc acid] the same measures were 25.4 nM and 30000 nM.
As to `CCC(=O)Oc1cc(-c2c(F)cc3c(N4CC5CC[C@@](C)(C4)N5)nc(OC[C@@]45CCCN4C[C@H](F)C5)nc3c2F)c2c(Cl)cccc2c1` (single isomer, unassigned) [Ex. 162a], the figures for the IC50 in test [1] and in test [2] (setting [3]) were 23.1 nM and 659 nM, respectively.
As for `C[C@]12CCC(CN(c3nc(OC[C@]4(CN[C@@H]5CC[C@H](O)C5)CC4(F)F)nc4c(F)c(-c5cc(O)cc6cccc(Cl)c56)c(F)cc34)C1)N2` (single isomer, unassigned) [Ex. 219a], the values for the IC50 in test [1] and in test [2] (setting [3]) were 3.27 nM and 1250 nM, respectively.
The corresponding values for `C[C@]12CC[C@H](CN(c3nc(OCC4(CN5CCCC(O)(C(F)(F)F)C5)CC4)nc4c(F)c(-c5cc(O)cc6cccc(Cl)c56)c(F)cc34)C1)N2` (mixture of isomers) [Ex. 207, rac-1-((1-(((7-(8-chloro-3-hydroxynaphthalen-1-yl)-6,8-difluoro-4-((1S,5R)-1-methyl-3,8-diazabicyclo-[3.2.1]octan-3-yl)quinazolin-2-yl)oxy)methyl)cyclo-propyl)methyl)-3-trifluoromethyl)piperidin-3-ol] are 767 nM and 30000 nM.
For `Cc1nc(N)c(C)c(-c2c(F)cc3c(N4CC5CCC(C4)N5)nc(OC[C@@]45CCCN4C[C@H](F)C5)nc3c2F)c1C(F)(F)F` (single isomer, unassigned) [Ex. 191a] the same measures were 26.5 nM and 288 nM.
In the case of `[2H]c1c([2H])c(C#C)c2c(-c3c(F)cc4c(N5C[C@H]6CC[C@@](C)(C5)N6)nc(OC[C@@]56CCCN5C[C@H](F)C6)nc4c3F)c([2H])c([2H])c([2H])c2c1[2H]` [compound 241, 7-(8-ethynylnaphthalen-1-yl-2,3,4,5,6,7-d6)-6,8-difluoro-2-(((2R,7aS)-2-fluorotetrahydro-1H-pyrrolizin-7a(5H)-yl)methoxy)-4-((1S,5R)-1-methyl-3,8-iazabicyclo[3.2.1]octan-3-yl)quinazoline, 2TFA], the IC50 in test [1] was 8.63 nM; in test [2] (setting [4]), 1760 nM.
For `CN(C)CC1(COc2nc(N3C[C@H]4CC[C@@](C)(C3)N4)c3cc(F)c(-c4cc(O)cc5ccccc45)c(F)c3n2)CC1C(=O)O` (single isomer, unassigned) [Ex. 107a], the IC50 in test [1] came to 648 nM; in test [2] (setting [3]), 30000 nM.
For `Cc1nc2[nH]nc(C)c2c(-c2c(F)cc3c(N4C[C@H]5CC[C@@H](C4)N5)nc(OC[C@@]45CCCN4C[C@H](F)C5)nc3c2F)c1C(F)(F)F` (single isomer, unassigned) [250b] the same measures were 1.54 nM and 63.1 nM.
In the case of `N#Cc1c(N)sc2c(F)ccc(-c3c(F)cc4c(N5C[C@H]6CC[C@@H](C5)N6)nc(OC[C@@]56CCCN5C[C@H](F)C6)nc4c3F)c12` (single isomer, unassigned) [Ex. 144a], the IC50 is 2.03 nM in test [1] and 83.9 nM in test [2] (setting [3]).
Take `C#Cc1c(F)ccc2cccc(-c3c(F)cc4c(N5CC6CCC(C5)N6)nc(OC[C@@]56CCCN5[C@H](CO)CC6)nc4c3F)c12` (single isomer, unassigned) [Ex. 142]: the IC50 in test [1] came to 1.57 nM; in test [2] (setting [4]), 384 nM.
For `C[C@]12CC[C@H](CN(c3nc(OCC45CNCC4C5)nc4c(F)c(-c5cc(O)cc6cccc(Cl)c56)c(F)cc34)C1)N2` (mixture of isomers) [Ex. 165, 4-(2-((3-azabicyclo-[3.1.0]hexan-1-yl)-methoxy)-6,8-difluoro-4-((1S,5R)-1-methyl-3,8-diazabicyclo[3.2.1]-octan-3-yl)quinazolin-7-yl)-5-chloronaph-thalen-2-ol, TFA] the same measures were 149 nM and 15400 nM.
Consider `C#Cc1cccc2nc(N)cc(-c3c(F)cc4c(N5CC6CCC(C5)N6)nc(OC[C@@]56CCCN5C[C@H](F)C6)nc4c3F)c12` (single isomer, unassigned) [Ex. 203a], for which the IC50 in test [1] amounted to 380 nM; in test [2] (setting [3]), 3020 nM.
For `C#Cc1cccc2scc(-c3c(F)cc4c(N5CC6CC[C@@](C)(C5)N6)nc(OCC5(CN6CCOCC6)CC5)nc4c3F)c12` (single isomer, unassigned) [Ex. 147b] the same measures were 429 nM and 10200 nM.
With `CC(O)(COc1nc(N2CC3CC[C@@](C)(C2)N3)c2cc(F)c(-c3cc(O)cc4cccc(Cl)c34)c(F)c2n1)CN1CC[C@@H](F)C1` (single isomer, unassigned) [Ex. 209], the IC50 in test [1] worked out at 46.1 nM; in test [2] (setting [4]) it was 2910 nM.
For `C[C@]12CCC(CN(c3nc(OC[C@]4(CN[C@H]5C[C@@H](O)C5)CC4(F)F)nc4c(F)c(-c5cc(O)cc6cccc(Cl)c56)c(F)cc34)C1)N2` (single isomer, unassigned) [Ex. 216b], the IC50 in test [1] stood at 804 nM; in test [2] (setting [3]), 7120 nM.
For the molecule `Cc1cc2[nH]nc(C#N)c2c(-c2c(F)cc3c(N4C[C@H]5CC[C@@H](C4)N5)nc(OC[C@@]45CCCN4C[C@H](F)C5)nc3c2F)c1C(F)F` [compound 254, 4-(4-((1R,5S)-3,8-diazabicyclo[3.2.1]octan-3-yl)-6,8-difluoro-2-(((2R,7aS)-2-fluorotetrahydro-1H-pyrrolizin-7a(5H)-yl)methoxy)quinazolin-7-yl)-5-(difluoromethyl)-6-methyl-1H-indazole-3-carbonitrile], the IC50 in test [1] worked out at 0.77 nM; in test [2] (setting [4]) it was 80.3 nM.
In the case of `Cc1cc(N)nc(-c2c(F)cc3c(N4C[C@H]5CC[C@@H](C4)N5)nc(OC[C@@]45CCCN4C[C@H](F)C5)nc3c2F)c1C1CC1` [Ex. 237, 6-(4-((1R,5S)-3,8-diazabicyclo[3.2.1]octan-3-yl)-6,8-difluoro-2-(((2R,7aS)-2-fluorotetrahydro-1H-pyrrolizin-7a(5H)-yl)methoxy)quinazolin-7-yl)-5-cyclopropyl-4-methylpyridin-2-amine], the IC50 in test [1] worked out at 57.6 nM; in test [2] (setting [4]), 508 nM.
`C[C@]12CCC(CN(c3nc(OC[C@@]45CCCN4C[C@H](F)C5)nc4c(F)c(-c5cc(O)cc(Cl)c5C(F)(F)F)c(F)cc34)C1)N2` (single isomer, unassigned) [Ex. 183b]: the values for the IC50 in test [1] and in test [2] (setting [3]) were 3.95 nM and 190 nM, respectively.
For the molecule `C[C@]12CC[C@H](CN(c3nc(OC[C@@]45CCCN4C[C@H](F)C5)nc4c(F)c(-c5cc(N)c(F)c6cccc(Cl)c56)c(F)cc34)C1)N2` (single isomer, unassigned) [Ex. 163a], the results for the IC50 in test [1] and in test [2] (setting [3]) were 47.5 nM and 2270 nM, respectively.
For `Cc1cc2[nH]nc(C)c2c(-c2c(F)cc3c(N4CC5CCC(C4)N5)nc(OC[C@@]45CCCN4C[C@H](F)C5)nc3c2F)c1OC(F)(F)F` (single isomer, unassigned) [Ex. 232a] the same measures were 932 nM and 30000 nM.
In the case of `Cc1cc(N)c(F)c(-c2c(F)cc3c(N4CC5CCC(C4)N5)nc(OC[C@@]45CCCN4C[C@H](F)C5)nc3c2F)c1C(F)(F)F` (single isomer, unassigned) [Ex. 146a], the IC50 in test [1] was 1.56 nM; in test [2] (setting [4]), 185 nM.
As to `Cc1nc(N)c(C)c(-c2c(F)cc3c(N4CC5CCC(C4)N5)nc(OC[C@@]45CCCN4C[C@H](F)C5)nc3c2F)c1C(F)(F)F` (single isomer, unassigned) [Ex. 191b], the figures for the IC50 in test [1] and in test [2] (setting [3]) were 2840 nM and 30000 nM, respectively.
